Results: the NIST ThermoML archive (doi:10.1016/j.jct.2005.12.005)
± gives the expanded uncertainty stated by the source.

Assays:
[1] = 101 kPa, Liquid; for speed of sound: Sing-around technique in a fixed-path interferometer
[2] = refractive index (Na D-line) (dimensionless); settings: 101.33 kPa, Liquid

| SMILES | mass density ([1]; 298.15 K) [kg/m3] | viscosity ([1]; 298.15 K) [mPa·s] | speed of sound ([1]; 298.15 K) [m/s] | mass density ([1]; 303.15 K) [kg/m3] | viscosity ([1]; 303.15 K) [mPa·s] | mass density ([1]; 308.15 K) [kg/m3] | viscosity ([1]; 308.15 K) [mPa·s] | refractive index ([2]; 298.15 K) | refractive index ([2]; 303.15 K) | refractive index ([2]; 308.15 K) |
| --- | --- | --- | --- | --- | --- | --- | --- | --- | --- | --- |
| Cc1ccccc1 [toluene] | 862.3 ± 0.5 | 0.559 ± 0.008 | 1314 ± 5 | 857.6 ± 0.6 | 0.526 ± 0.007 | 852.9 ± 0.6 | 0.497 ± 0.007 | 1.4931 ± 0.0009 | 1.4902 ± 0.0009 | 1.4874 ± 0.0009 |
| c1ccccc1 [benzene] | 873.4 ± 0.5 | 0.602 ± 0.008 | 1302 ± 5 | 868.1 ± 0.5 | 0.56 ± 0.008 | 862.7 ± 0.5 | 0.523 ± 0.007 | 1.4971 ± 0.0009 | 1.4936 ± 0.0009 | 1.4903 ± 0.0009 |
| Cc1cc(C)cc(C)c1 [1,3,5-trimethylbenzene] | 861.2 ± 1.1 | 0.667 ± 0.011 | 1346 ± 6 | 857.1 ± 1.1 | 0.622 ± 0.01 | 853 ± 1.1 | 0.586 ± 0.01 | 1.496 ± 0.0025 | 1.4936 ± 0.0025 | 1.4913 ± 0.0025 |
